Source: ChEMBL document CHEMBL1201862, “PubChem BioAssay data set” (2004)
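All cell lines were grown in 96-well plates and treated with compound for 48 hours. GI50 = concentration required for 50% inhibition of growth.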 Activity calls are given as the source filed them. No stated cut-off is given here; in the data, active = GI50 up to about 1.1 µM and inactive = higher.

Key:
Assay in all cases: inhibition of tumour cell growth, NCI panel, 48 h
ACHN = test system: ACHN
SF-295 = test system: SF-295
MDA-MB-231 = test system: MDA-MB-231
RXF 393 = test system: RXF 393
SN12C = test system: SN12C
CAKI-1 = test system: CAKI-1
EKVX = test system: EKVX
HOP-62 = test system: HOP-62
U-251 = test system: U-251
HT-29 = test system: HT-29
SF-268 = test system: SF-268
KM12 = test system: KM12
OVCAR-3 = test system: OVCAR-3
T47D = test system: T47D
COLO 205 = test system: COLO 205
MDA-MB-435 = test system: MDA-MB-435
SK-MEL-28 = test system: SK-MEL-28
TK-10 = test system: TK-10
NCI/ADR-RES = test system: NCI/ADR-RES
NCI-H522 = test system: NCI-H522
SK-MEL-5 = test system: SK-MEL-5
SW-620 = test system: SW-620
OVCAR-5 = test system: OVCAR-5
HCT-15 = test system: HCT-15
A498 = test system: A498
BT-549 = test system: BT-549
DU-145 = test system: DU-145
NCI-H23 = test system: NCI-H23
SNB-75 = test system: SNB-75
UACC-257 = test system: UACC-257
MOLT-4 = test system: MOLT-4
SK-OV-3 = test system: SK-OV-3
OVCAR-8 = test system: OVCAR-8
NCI-H226 = test system: NCI-H226
RPMI-8226 = test system: RPMI-8226
HCT-116 = test system: HCT-116
HOP-92 = test system: HOP-92
OVCAR-4 = test system: OVCAR-4
LOX IMVI = test system: LOX IMVI
786-0 = test system: 786-0
Malme-3M = test system: Malme-3M
SF-539 = test system: SF-539

## N#Cc1c2c(c(Nc3cccc(C(F)(F)F)c3)n3c1nc1ccccc13)CCC2
ACHN
  GI50: > 100 µM (inactive)
SF-295
  GI50: > 100 µM (inactive)
MDA-MB-231
  GI50: > 100 µM (inactive)
RXF 393
  GI50: > 100 µM (inactive)
SN12C
  GI50: > 100 µM (inactive)
CAKI-1
  GI50: > 100 µM (inactive)
EKVX
  GI50: > 100 µM (inactive)
HOP-62
  GI50: > 100 µM (inactive)
U-251
  GI50: > 100 µM (inactive)
HT-29
  GI50: > 100 µM (inactive)
SF-268
  GI50: > 100 µM (inactive)
KM12
  GI50: > 100 µM (inactive)
OVCAR-3
  GI50: > 100 µM (inactive)
T47D
  GI50: > 100 µM (inactive)
COLO 205
  GI50: > 100 µM (inactive)
MDA-MB-435
  GI50: > 100 µM (inactive)
SK-MEL-28
  GI50: > 100 µM (inactive)
TK-10
  GI50: > 100 µM (inactive)
NCI/ADR-RES
  GI50: > 100 µM (inactive)
NCI-H522
  GI50: > 100 µM (inactive)
SK-MEL-5
  GI50: > 100 µM (inactive)
SW-620
  GI50: > 100 µM (inactive)
OVCAR-5
  GI50: > 100 µM (inactive)
HCT-15
  GI50: > 100 µM
A498
  GI50: > 100 µM (inactive)
BT-549
  GI50: 60.7 µM (inactive)
DU-145
  GI50: > 100 µM (inactive)
NCI-H23
  GI50: > 100 µM (inactive)
SNB-75
  GI50: > 100 µM (inactive)
UACC-257
  GI50: > 100 µM (inactive)
MOLT-4
  GI50: > 100 µM (inactive)
SK-OV-3
  GI50: > 100 µM (inactive)
OVCAR-8
  GI50: > 100 µM (inactive)
NCI-H226
  GI50: > 100 µM (inactive)
RPMI-8226
  GI50: > 100 µM (inactive)
HCT-116
  GI50: > 100 µM (inactive)
HOP-92
  GI50: 6.5 µM (inactive)
OVCAR-4
  GI50: > 100 µM (inactive)
LOX IMVI
  GI50: > 100 µM (inactive)
786-0
  GI50: > 100 µM (inactive)
Malme-3M
  GI50: > 100 µM (inactive)
SF-539
  GI50: > 100 µM (inactive)

## Cc1cc2nc3c(C#N)c(-c4ccccc4)cc(Nc4ccc(F)cc4)n3c2cc1C
ACHN
  GI50: 16.4 µM (inactive)
SF-295
  GI50: 17.6 µM (inactive)
MDA-MB-231
  GI50: 15.1 µM (inactive)
RXF 393
  GI50: 14.4 µM (inactive)
SN12C
  GI50: 13.9 µM (inactive)
CAKI-1
  GI50: 29.9 µM (inactive)
EKVX
  GI50: 14.6 µM (inactive)
HOP-62
  GI50: 14.4 µM (inactive)
U-251
  GI50: 4.33 µM (inactive)
HT-29
  GI50: 28.6 µM (inactive)
SF-268
  GI50: 10.5 µM (inactive)
KM12
  GI50: 86.7 µM (inactive)
OVCAR-3
  GI50: 12.2 µM (inactive)
T47D
  GI50: > 100 µM (inactive)
COLO 205
  GI50: > 100 µM (inactive)
MDA-MB-435
  GI50: > 100 µM (inactive)
SK-MEL-28
  GI50: 46.2 µM (inactive)
TK-10
  GI50: 12.4 µM (inactive)
NCI/ADR-RES
  GI50: 8.11 µM (inactive)
NCI-H522
  GI50: 4.33 µM (inactive)
SK-MEL-5
  GI50: 16 µM (inactive)
SW-620
  GI50: 55.5 µM (inactive)
OVCAR-5
  GI50: 15.6 µM (inactive)
HCT-15
  GI50: 9.25 µM
A498
  GI50: 22.1 µM (inactive)
BT-549
  GI50: 22.6 µM (inactive)
NCI-H23
  GI50: 13.4 µM (inactive)
SNB-75
  GI50: 15.9 µM (inactive)
UACC-257
  GI50: 7.5 µM (inactive)
MOLT-4
  GI50: 17.6 µM (inactive)
SK-OV-3
  GI50: 16.7 µM (inactive)
OVCAR-8
  GI50: 10.7 µM (inactive)
NCI-H226
  GI50: 27.2 µM (inactive)
RPMI-8226
  GI50: > 100 µM (inactive)
HCT-116
  GI50: 13.7 µM (inactive)
HOP-92
  GI50: 5.01 µM (inactive)
OVCAR-4
  GI50: 53.6 µM (inactive)
LOX IMVI
  GI50: 13.4 µM (inactive)
786-0
  GI50: 8.49 µM (inactive)
Malme-3M
  GI50: 21.5 µM (inactive)
SF-539
  GI50: 18.6 µM (inactive)
